Values after ≈ are worked out from the molar mass of the structure shown.

The first series concerns C. albicans ATCC 90028. The series is described as follows: Antifungal MIC (CO-ADD), C. albicans. Particulars: Candida albicans, ATCC90028, top dose 32 µg/mL. In kind it is cell-based. On the procedure:
(§1) For the antifungal assay, fungi strains were cultured for 3 days on YPD agar at 30 °C. A yeast suspension of 1 × 10^6 to 5 × 10^6 CFU/mL was prepared from five colonies. These stock suspensions were diluted with a yeast nitrogen base (YNB) (Becton Dickinson, 233520, New South Wales, Australia) broth to a final concentration of 2.5 × 10^3 CFU/mL. […] The plates were covered and incubated at 35 °C for 36 h without shaking. C. albicans MICs were determined by measuring the absorbance at OD530. For C. neoformans, resazurin was added at a 0.006% final concentration to each well and incubated for a further 3 h before the MICs were determined by measuring the absorbance at OD570–600. […] Fluconazole was used as a positive fungal inhibitor standard for C. albicans and C. neoformans. […] The quality control (QC) of the assays was determined by the antimicrobial controls and the Z′-factor (using positive and negative controls).
Turning to `O=C(NCCCNCCCCCCCCCCCCNCCCNC(=O)c1c[nH]c2ccc(Br)cc12)c1c[nH]c2ccc(Br)cc12.O=C(O)C(F)(F)F.O=C(O)C(F)(F)F` [Compound 13f], the minimal inhibitory concentration (MIC) is not above 0.25 µM.

Compound `COc1ccc2[nH]cc(C(=O)NCCCNCCCCCCNCCCNC(=O)c3c[nH]c4ccc(OC)cc34)c2c1` [Compound 14b] registered an MIC of more than 40 µM.

The test system of a further series is K. pneumoniae ATCC 700603. The series is described as follows: MIC, broth microdilution (CO-ADD), K. pneumoniae. Particulars: top dose 32 µg/mL.
In the case of `O=C(NCCCNCCCCCCCCCCCCNCCCNC(=O)c1c[nH]c2ccc(Br)cc12)c1c[nH]c2ccc(Br)cc12.O=C(O)C(F)(F)F.O=C(O)C(F)(F)F` [Compound 13f], the “MIC Kp” value is not above 0.25 µM.

Take `COc1ccc2[nH]cc(C(=O)NCCCNCCCCCCNCCCNC(=O)c3c[nH]c4ccc(OC)cc34)c2c1` [Compound 14b]: the “MIC Kp” value is more than 40 µM.

The test system of a further series is P. aeruginosa ATCC 27853. Briefly: Doxycycline potentiation against P. aeruginosa. In kind it is cell-based, Pseudomonas aeruginosa. The conditions noted are these: doxycycline at 2 µg/mL (4.5 µM), P. aeruginosa ATCC 27853. From the text: (§2) These measurements were independently repeated in triplicate.
Take `O=C(NCCCNCCCCCCCCCCCCNCCCNC(=O)c1c[nH]c2ccc(Br)cc12)c1c[nH]c2ccc(Br)cc12.O=C(O)C(F)(F)F.O=C(O)C(F)(F)F` [Compound 13f]: the “Dox/Pa fold-change (intrinsic MIC / combination MIC)” value turned out to be 4 fold.

Consider `COc1ccc2[nH]cc(C(=O)NCCCNCCCCCCNCCCNC(=O)c3c[nH]c4ccc(OC)cc34)c2c1` [Compound 14b], for which the “Dox/Pa fold-change (intrinsic MIC / combination MIC)” value is more than 8 fold.

The same series, now with this note: doxycycline at 2 µg/mL (4.5 µM), P. aeruginosa ATCC 27853, mean n = 3.
Regarding `O=C(NCCCNCCCCCCCCCCCCNCCCNC(=O)c1c[nH]c2ccc(Br)cc12)c1c[nH]c2ccc(Br)cc12.O=C(O)C(F)(F)F.O=C(O)C(F)(F)F` [Compound 13f], the “Dox/Pa: concentration required to restore doxycycline activity (combination MIC)” value is recorded as 50.7 µM.

Regarding `COc1ccc2[nH]cc(C(=O)NCCCNCCCCCCNCCCNC(=O)c3c[nH]c4ccc(OC)cc34)c2c1` [Compound 14b], the “Dox/Pa: concentration required to restore doxycycline activity (combination MIC)” value was 31.1 µM.

The test system of another series is C. neoformans ATCC 208821. Briefly: Antifungal MIC (CO-ADD), C. neoformans. The series is classed as cell-based. Particulars: Cryptococcus neoformans, ATCC208821, top dose 32 µg/mL. The method, then: as §1
As for `O=C(NCCCNCCCCCCCCCCCCNCCCNC(=O)c1c[nH]c2ccc(Br)cc12)c1c[nH]c2ccc(Br)cc12.O=C(O)C(F)(F)F.O=C(O)C(F)(F)F` [Compound 13f], the minimum inhibitory concentration (MIC) was not above 0.25 µM.

Compound `COc1ccc2[nH]cc(C(=O)NCCCNCCCCCCNCCCNC(=O)c3c[nH]c4ccc(OC)cc34)c2c1` [Compound 14b] registered an MIC not above 0.31 µM.

Another series has as its system human red blood cells. The series is described as follows: Hemolytic assay. The series is classed as cell-based. Particulars: 10% hemolytic activity, mean n = 2. The method, then: Human whole blood was washed three times with three volumes of 0.9% NaCl and then resuspended in the same solution to a concentration of 0.5 × 10^8 cells/mL, as determined by the manual cell count in a Neubauer hemocytometer. The washed cells were then added to the 384-well compound-containing plates for a final volume of 50 μL. After a 10 min shake on a plate shaker, the plates were then incubated for 1 h at 37 °C. After incubation, the plates were centrifuged at 1000× g for 10 min to pellet cells and debris; 25 μL of the supernatant was then transferred to a polystyrene 384-well assay plate. Hemolysis was determined by measuring the supernatant absorbance at […] (OD405). The absorbance was measured using a Tecan M1000 Pro monochromator plate reader. HC10 and HC50 (concentrations at 10% and 50% hemolysis, respectively) were calculated by a curve fitting the inhibition values vs. log (concentration) using a sigmoidal dose–response function with variable fitting values for the top, bottom, and slope.
Regarding `O=C(NCCCNCCCCCCCCCCCCNCCCNC(=O)c1c[nH]c2ccc(Br)cc12)c1c[nH]c2ccc(Br)cc12.O=C(O)C(F)(F)F.O=C(O)C(F)(F)F` [Compound 13f], the “Hemolysis HC10” value is on record as 14.2 µM.

Turning to `COc1ccc2[nH]cc(C(=O)NCCCNCCCCCCNCCCNC(=O)c3c[nH]c4ccc(OC)cc34)c2c1` [Compound 14b], the “Hemolysis HC10” value was more than 40 µM.

Tested on in the next series: not listed separately
The series is described as follows: Cytotoxicity assay (resazurin). In kind it is cell-based. Particulars: human, HEK293 cells, mean n = 2.
In turn, `O=C(NCCCNCCCCCCCCCCCCNCCCNC(=O)c1c[nH]c2ccc(Br)cc12)c1c[nH]c2ccc(Br)cc12.O=C(O)C(F)(F)F.O=C(O)C(F)(F)F` [Compound 13f] came in with an IC50 at 20 h not above 0.25 µM.

`COc1ccc2[nH]cc(C(=O)NCCCNCCCCCCNCCCNC(=O)c3c[nH]c4ccc(OC)cc34)c2c1` [Compound 14b] had an IC50 at 20 h of more than 40 µM.

The next series has as its system S. aureus ATCC 25923. The series is described as follows: MIC, broth dilution, S. aureus. The series is classed as cell-based, Staphylococcus aureus. Particulars: Staphylococcus aureus, ATCC25923; S. aureus ATCC 25923, 18 h; read-out: MIC Sa.
For the compound `O=C(NCCCNCCCCCCCCCCCCNCCCNC(=O)c1c[nH]c2ccc(Br)cc12)c1c[nH]c2ccc(Br)cc12.O=C(O)C(F)(F)F.O=C(O)C(F)(F)F` [Compound 13f], the MIC is 3.17 µM.

On to `COc1ccc2[nH]cc(C(=O)NCCCNCCCCCCNCCCNC(=O)c3c[nH]c4ccc(OC)cc34)c2c1` [Compound 14b], for which the MIC turned out to be 248 µM (≈ 143 µg/mL).

The test system of another series is P. aeruginosa ATCC 27853. Briefly: MIC, broth dilution, P. aeruginosa. The series is classed as cell-based, Pseudomonas aeruginosa. The conditions noted are these: Pseudomonas aeruginosa, ATCC27853; P. aeruginosa ATCC 27853, 18 h; read-out: MIC Pa.
Consider `O=C(NCCCNCCCCCCCCCCCCNCCCNC(=O)c1c[nH]c2ccc(Br)cc12)c1c[nH]c2ccc(Br)cc12.O=C(O)C(F)(F)F.O=C(O)C(F)(F)F` [Compound 13f], for which the MIC was found to be 203 µM.

In the case of `COc1ccc2[nH]cc(C(=O)NCCCNCCCCCCNCCCNC(=O)c3c[nH]c4ccc(OC)cc34)c2c1` [Compound 14b], the MIC is more than 248 µM.

In another series the test system is MRSA ATCC 43300. Briefly: MIC, broth microdilution (CO-ADD), MRSA. The series is classed as cell-based, methicillin-resistant S. aureus. Particulars: Staphylococcus aureus; MRSA ATCC 43300; top dose 32 µg/mL; read-out: MIC MRSA.
For `O=C(NCCCNCCCCCCCCCCCCNCCCNC(=O)c1c[nH]c2ccc(Br)cc12)c1c[nH]c2ccc(Br)cc12.O=C(O)C(F)(F)F.O=C(O)C(F)(F)F` [Compound 13f], the MIC is not above 0.25 µM.

As for `COc1ccc2[nH]cc(C(=O)NCCCNCCCCCCNCCCNC(=O)c3c[nH]c4ccc(OC)cc34)c2c1` [Compound 14b], the MIC is not above 0.31 µM.

Another series has as its system E. coli ATCC 25922. The series is described as follows: MIC, broth dilution, E. coli. The conditions noted are these: Escherichia coli, ATCC25922; E. coli ATCC 25922, 18 h. The series is classed as cell-based, Escherichia coli.
Take `O=C(NCCCNCCCCCCCCCCCCNCCCNC(=O)c1c[nH]c2ccc(Br)cc12)c1c[nH]c2ccc(Br)cc12.O=C(O)C(F)(F)F.O=C(O)C(F)(F)F` [Compound 13f]: the MIC is more than 203 µM.

`COc1ccc2[nH]cc(C(=O)NCCCNCCCCCCNCCCNC(=O)c3c[nH]c4ccc(OC)cc34)c2c1` [Compound 14b] displayed an MIC of 248 µM (≈ 143 µg/mL).

For another series, the system named is E. coli ATCC 25922. The series is described as follows: Erythromycin potentiation against E. coli. Particulars: erythromycin at 2 µg/mL (2.7 µM), E. coli. In kind it is cell-based, Escherichia coli.
From the text: as §2
On to `O=C(NCCCNCCCCCCCCCCCCNCCCNC(=O)c1c[nH]c2ccc(Br)cc12)c1c[nH]c2ccc(Br)cc12.O=C(O)C(F)(F)F.O=C(O)C(F)(F)F` [Compound 13f], for which the “Erythro/Ec fold-change (intrinsic MIC / combination MIC)” value is given as more than 8 fold.

Consider `COc1ccc2[nH]cc(C(=O)NCCCNCCCCCCNCCCNC(=O)c3c[nH]c4ccc(OC)cc34)c2c1` [Compound 14b], for which the “Erythro/Ec fold-change (intrinsic MIC / combination MIC)” value came to 4 fold.

The series is the same for the next values; noted with them: erythromycin at 2 µg/mL (2.7 µM), mean n = 3.
For `O=C(NCCCNCCCCCCCCCCCCNCCCNC(=O)c1c[nH]c2ccc(Br)cc12)c1c[nH]c2ccc(Br)cc12.O=C(O)C(F)(F)F.O=C(O)C(F)(F)F` [Compound 13f], the “Erythro/Ec: concentration required to restore erythromycin activity (combination MIC)” value is on record as 25.3 µM.

`COc1ccc2[nH]cc(C(=O)NCCCNCCCCCCNCCCNC(=O)c3c[nH]c4ccc(OC)cc34)c2c1` [Compound 14b]: the “Erythro/Ec: concentration required to restore erythromycin activity (combination MIC)” value is 62.1 µM.

The next series relates to A. baumannii ATCC 19606. Briefly: MIC, broth microdilution (CO-ADD), A. baumannii. The conditions noted are these: Acinetobacter baumannii, ATCC19606, top dose 32 µg/mL. In kind it is cell-based, Acinetobacter baumannii.
As to `O=C(NCCCNCCCCCCCCCCCCNCCCNC(=O)c1c[nH]c2ccc(Br)cc12)c1c[nH]c2ccc(Br)cc12.O=C(O)C(F)(F)F.O=C(O)C(F)(F)F` [Compound 13f], 2.03 µM was the least that counted as inhibitory (MIC).

Compound `COc1ccc2[nH]cc(C(=O)NCCCNCCCCCCNCCCNC(=O)c3c[nH]c4ccc(OC)cc34)c2c1` [Compound 14b] returned an MIC of more than 40 µM.

For the origin of these results see article PMC10967822, “Antimicrobial Indole-3-Carboxamido-Polyamine Conjugates Target Bacterial Membranes and Are Antibiotic Potentiators” (Biomolecules, 2024).
